Experimental findings from patent publication US11826358B2, “Locally-induced adipose tissue browning by microneedle patch for obesity treatment” (NORTH CAROLINA STATE UNIVERSITY, priority 2017, dated 2023) are described below.

One experiment relates to PgKO-PPARγ1. Description: Adipogenesis in PgKO-PPARγ1 MEF adipocyte model (aP2, Perilipin Q-PCR). The class given is cell-based, mouse.
For another experiment, the system named is 3T3-L1 adipocytes. Description: Browning in fully differentiated 3T3-L1 adipocytes (Q-PCR). The class given is cell-based. The text has this: To validate the efficiency of Rosi NPs, an in vitro adipocyte model PgKO-PPARγ1 was used in which the reconstitution of a shorter form of PPARγ (γ1) in Ppar^−/− mouse embryonic fibroblast (MEF) rescues adipocyte differentiation only in the presence of exogenous Thiazolidinedione class of ligand (e.g. Rosi). […] In addition to adipogenic potential, the browning capacity of Rosi NPs was also compared. In fully differentiated 3T3-L1 adipocytes, Rosi NPs behaved the same as nude Rosi to up-regulate brown adipocyte markers Elovl3 and Cidea as well as to repress white adipocyte genes Resistin and Adipsin (FIG. 2g). Therefore, the disclosed nanoparticalization strategy can sustain a constant release of Rosi at physiological levels of glucose without affecting its efficiency.
RNA was extracted from tissues or cells by combining TriZol reagent and NucleoSpin RNA kit with DNase I digestion (Macherey-Nagel), following the manufacturer's instructions. 1 μg total RNA was used to synthesize cDNA by using the High-capacity cDNA Reverse Transcription kit (Applied Biosystems). Quantitative real-time PCR (Q-PCR) were performed on a Bio-Rad CFX96 Real-Time PCR platform by using the GoTaq qPCR Master Mix (Promega). Relative gene expressions were calculated by using ΔΔCt method with Cyclophilin A (cultured cells) or RPL23 (tissues) as the reference gene.

For `CN(CCOc1ccc(CC2SC(=O)NC2=O)cc1)c1ccccn1` (racemic) [nude Rosi, (RS)-5-[4-(2-[methyl(pyridin-2-yl)amino]ethoxy)benzyl]thiazolidine-2,4-dione], the “adipocyte formation (induction of aP2 and Perilipin)” value in the experiment with PgKO-PPARγ1 is on record as “induce adipocyte formation”. In addition, in the experiment on 3T3-L1 adipocytes, the “brown adipocyte markers Elovl3 and Cidea expression” value is listed as “up-regulate”; the “white adipocyte genes Resistin and Adipsin expression” value was “repress”.
